Assay results published in patent US20240360148A1 (SUVALENT THERAPEUTICS, INC., priority 2021, published 2024).

What was measured:
[1] = molecular target: SAE1 (Homo sapiens (Human), UniProt Q9UBE0+Q9UBT2); assay: SAE High Throughput Biochemical Assay (HTRF), 15 min preincubation; conditions: read-out: 15 min preincubation HTRF IC50 (μM) Ave, SAE1 12.5 nM, ATP 100 μM
Procedure, shortened: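 SAE1 (12.5 nM) was preincubated with compound for 15 min at RT in HEPES pH 7.5, 0.1% BSA, 10 mM MgCl2. The reaction was then started with SUMO-GST and UBC9-His (40 nM each) plus 100 μM ATP for 45 min. After KF stop, HTRF (anti-GST-XL665/anti-His-EuK) was read at 2 h and overnight; some compounds were tested singly at 25 micromolar as percent of control.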

[2] = tested on: sumoylation levels (SUMO 2/3 conjugates) in HCT-116 cells; assay: HCT-116 4 Hour Cell Assay (Western, SUMO 2/3 conjugates); type: cell-based; conditions: Homo sapiens, HCT-116, 4 h, 4 h treatment, Anti-Sumo 2-3 immunoblot, read-out: HCT-116 Western 4 h IC50 (μM) Ave
Protocol: This protocol describes the procedures used to assess the effects of compounds of interest on sumoylation levels. Immunoblot of SUMO 2/3 conjugates are performed and IC50 curves are generated upon quantification of sumoylations bands. HCT-116 cells are seeded in a 12 well plate (500,000 cells/well). The following day the cells are treated with compounds of interest (resuspended in DMSO) for 4 hours (11 concentrations with a three-fold dilution; starting concentration 25 μM) Following 4 hours of incubation the cells are washed with ice cold PBS 1×and protein extraction is performed with RIPA buffer supplemented with phosphatases and proteases inhibitors, 25 mM of NEM and 50 units/mL of Benzonase. Samples undergo centrifugation at 13,000 RPM, 4° C., for 10 minutes and the supernatant is collected. Protein quantification is performed using BCA. Non-Reducing Laemmli Buffer is added to the samples. Samples are heated at 75° C. for 10 minutes, and are centrifuged for 3 minutes at 9000 RPM Nupage 4-12% Bis Tris gels and 1× MOPS buffer (Fisher Scientific)+1× NuPAGE Antioxidant (Invitrogen) are used to perform the SDS-PAGE gel electrophoresis (20 to 40 μg of proteins are loaded in the gels). Proteins are then transferred to PVDF membranes and the level of total proteins are measured by staining with Revert Total Protein Stain and the fluorescent bands are acquired using the LI-COR FC (700 nm for 1 min) Membranes are blocked for 5 minutes with Bio-Rad Blocking Buffer and are subsequently incubated over night at 4° C. with Anti-Sumo 2-3 mAb (M BL #M114-3, 1:1000 in Bio-Rad Blocking Buffer, 0.2% Tween 20) Membranes are washed with 1×TBS-T (3 times for 5 minutes) and sumoylation is detected using Li-cor IRDye 800CW Goat anti-Mouse IgG secondary antibody (1:10,000 dilution) upon 1 hour of incubation in blocking buffer with 0.2% Tween 20 and 0.01% SDS. After the incubation, the membranes are washed with 1×TBS-T (3 times for 5 minutes). To visualize the fluorescent bands the membranes are scanned with LI-COR FC (700 nm for 1 min and […] for 2 mins). Sumoylation levels are quantified upon normalization with total protein levels, using the LI-COR Image Studio Lite 5.2 Software.

SAE1, sequence (Q9UBE0 whole entry): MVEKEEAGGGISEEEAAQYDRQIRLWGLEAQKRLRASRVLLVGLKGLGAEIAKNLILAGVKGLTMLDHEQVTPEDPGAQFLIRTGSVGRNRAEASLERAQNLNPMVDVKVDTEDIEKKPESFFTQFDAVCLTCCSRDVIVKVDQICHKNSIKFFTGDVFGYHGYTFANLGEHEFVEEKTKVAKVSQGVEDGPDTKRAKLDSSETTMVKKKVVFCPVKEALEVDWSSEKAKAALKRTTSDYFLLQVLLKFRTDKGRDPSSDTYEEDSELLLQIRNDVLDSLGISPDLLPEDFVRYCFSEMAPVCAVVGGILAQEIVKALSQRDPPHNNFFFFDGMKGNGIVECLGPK
SAE1, sequence (Q9UBT2 whole entry): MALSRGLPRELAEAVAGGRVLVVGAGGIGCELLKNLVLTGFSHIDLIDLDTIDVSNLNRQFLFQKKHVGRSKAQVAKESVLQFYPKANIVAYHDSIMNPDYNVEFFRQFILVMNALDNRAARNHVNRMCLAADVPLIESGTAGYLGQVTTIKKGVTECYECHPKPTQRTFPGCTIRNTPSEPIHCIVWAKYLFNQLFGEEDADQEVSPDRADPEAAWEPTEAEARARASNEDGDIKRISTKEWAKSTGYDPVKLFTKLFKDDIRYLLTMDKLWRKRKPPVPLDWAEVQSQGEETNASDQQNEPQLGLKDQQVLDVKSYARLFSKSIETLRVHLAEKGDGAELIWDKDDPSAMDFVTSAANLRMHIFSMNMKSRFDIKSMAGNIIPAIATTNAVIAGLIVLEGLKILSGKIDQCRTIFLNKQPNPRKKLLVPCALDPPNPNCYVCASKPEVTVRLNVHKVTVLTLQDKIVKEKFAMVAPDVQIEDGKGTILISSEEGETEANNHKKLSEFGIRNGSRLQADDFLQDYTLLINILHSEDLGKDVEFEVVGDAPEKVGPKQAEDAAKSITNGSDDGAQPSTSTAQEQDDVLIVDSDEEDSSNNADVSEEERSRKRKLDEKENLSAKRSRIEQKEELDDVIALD

Row | SMILES | IC50 [1] [µM] | IC50 [2] [µM]
1 | CCn1cc(-c2ccccc2[C@@H]2CN(C(=O)C#CCOC)Cc3sc(C#N)cc32)c(C(F)(F)F)n1 [Example 144, (S)-4-(2-(1-Ethyl-3-(trifluoromethyl)-1 H pyrazol-4-yl)phenyl)-6-(4-methoxybut-2-ynoyl)-4,5,6,7-tetrahydrothieno[2,3-c]pyridine-2-carbonitrile] | 0.54 | 0.792
2 | CCn1cc(-c2c(C)cccc2[C@@H]2CN(C(=O)/C=C/CN(C)C)Cc3sc(C#N)cc32)c(C(F)(F)F)n1 [Compound 242] | 2.32 | 1.29
3 | CC[C@H]1CNC(/C=C/C(=O)N2Cc3sc(C#N)cc3[C@H](c3cccc(F)c3-c3cn(CC)nc3C(F)(F)F)C2)C1 (stereo partly drawn) [Example 252, (S)-4-((S)-2-(1-ethyl-3-(trifluoromethyl)-1 H-pyrazol-4-yl)-3-fluorophenyl)-6-((E)-3-((2S,4R)-4-ethylpyrrolidin-2-yl)acryloyl)-4,5,6,7-tetrahydrothieno[2,3-c]pyridine-2-carbonitrile] | 0.39 | 0.288
4 | CCn1cc(-c2ccccc2[C@@H]2CN(C(=O)/C=C/[C@H]3C[C@@H](C)CN3)Cc3sc(C#N)cc32)c(C(F)(F)F)n1 [Example 81, (S)-4-(2-(1-Ethyl-3-(trifluoromethyl)-1 H-pyrazol-4-yl)phenyl)-6-((E)-3-((2R, 4R)-4-methylpyrrolidin-2-yl)acryloyl)-4,5,6,7-tetrahydrothieno[2,3-c]pyridine-2-carbonitrile] | 2.69 | 0.35
5 | CCn1cc(-c2c(F)cc(F)cc2[C@@H]2CN(C(=O)/C=C/CN(C)C)Cc3sc(C#N)cc32)c(C(F)(F)F)n1 [Compound 238] | 1.79 | 0.844
6 | CCn1cc(-c2ccccc2[C@H]2c3cc(C#N)sc3CN(C(=O)/C=C/CN(C)C)[C@@H]2C)c(C(F)(F)F)n1 [Compound 233] | 4.82 | 0.914
7 | CCn1cc(-c2ccccc2[C@@H]2CN(C(=O)/C=C/[C@@H]3CCCN3)Cc3sc(C#N)cc32)c(C(F)(F)F)n1 [Example 112] | 0.76 | 0.209
8 | CCn1cc(-c2c(F)cccc2[C@@H]2CN(C(=O)/C=C/[C@H]3CCN3)Cc3sc(C#N)cc32)c(C(F)(F)F)n1 [Example 54, (S)-6-((E)-3-((R)-azetidin-2-yl)acryloyl)-4-((S)-2-(1-ethyl-3-(trifluoromethyl)-1 H-pyrazol-4-yl)-3-fluorophenyl)-4,5,6,7-tetrahydrothieno[2,3-c]pyridine-2-carbonitrile] | 0.55 | 0.57
9 | CCn1cc(-c2ccccc2[C@@H]2CN(C(=O)C#CC3(N)CCCC3)Cc3sc(C#N)cc32)c(C(F)(F)F)n1 [Example 138, (S)-6-(3-(1-Aminocyclopentyl)propioloyl)-4-(2-(1-ethyl-3-(trifluoromethyl)-1 H-pyrazol-4-yl)phenyl)-4,5,6,7-tetrahydrothieno[2,3-c]pyridine-2-carbonitrile] | 0.5 | 2.69
10 | CCn1cc(-c2c(F)cccc2[C@@H]2CN(C(=O)/C=C/[C@@H]3C[C@@H](OC)CN3)Cc3sc(C#N)cc32)c(C(F)(F)F)n1 [Example 120, (S)-4-(2-(1-Ethyl-3-(trifluoromethyl)-1H pyrazol-4-yl)-3-fluorophenyl)-6-((E)-3-((2S,4R)-4-methoxypyrrolidin-2-yl)acryloyl)-4,5,6,7-tetrahydrothieno[2,3-c]pyridine-2-carbonitrile] | 0.31 | 0.383
11 | CCn1cc(-c2ccccc2[C@@H]2CN(C(=O)/C=C/[C@@H]3CCCCN3)Cc3sc(C#N)cc32)c(C(F)(F)F)n1 [Example 115, (S)-4-(2-(1-Ethyl-3-(trifluoromethyl)-1H pyrazol-4-yl)phenyl)-6-((E)-3-((S)-piperidin-2-yl)acryloyl)-4,5,6,7-tetrahydrothieno[2,3-c]pyridine-2-carbonitrile] | 1.95 | 0.6
12 | CCn1cc(-c2c(F)cccc2[C@@H]2CN(C(=O)/C=C/CNC(C)C)Cc3sc(C#N)cc32)c(C(F)(F)F)n1 [Example 106, (S,E)-4-(2-(1-Ethyl-3-(trifluoromethyl)-1H pyrazol-4-yl)-3-fluorophenyl)-6-(4-(isopropylamino)but-2-enoyl)-4,5,6,7-tetrahydrothieno[2,3-c]pyridine-2-carbonitrile] | 0.8 | 0.283
13 | CCn1cc(-c2c(F)cccc2[C@@H]2CN(C(=O)/C=C/C3CC[C@@H](C)N3)Cc3sc(C#N)cc32)c(C(F)(F)F)n1 (stereo in doubt) [Example 93, (S)-4-(2-(1-ethyl-3-(trifluoromethyl)-1H pyrazol-4-yl)-3-fluorophenyl)-6-((E)-3-((2S,5R)-5-methylpyrrolidin-2-yl)acryloyl)-4,5,6,7-tetrahydrothieno[2,3-c]pyridine-2-carbonitrile] | 0.76 | 0.145
14 | CCn1cc(-c2ccccc2[C@@H]2CN(C(=O)/C=C/C(F)F)Cc3sc(C#N)cc32)c(C(F)(F)F)n1 [Example 21, (S, E)-6-(4,4-difluorobut-2-enoyl)-4-(2-(1-ethyl-3-(trifluoromethyl)-1H-pyrazol-4-yl)phenyl)-4,5,6,7-tetrahydrothieno[2,3-c]pyridine-2-carbonitrile] |  | 0.12
15 | CN(C)C/C=C/C(=O)N1Cc2sc(C#N)cc2[C@H](c2ccccc2-c2cn(CCc3ccccn3)nc2C(F)(F)F)C1 [Example 176, (S, E)-6-(4-(Dimethylamino)but-2-enoyl)-4-(2-(1-(2-(pyridin-2-yl)ethyl)-3-(trifluoromethyl)-1H-pyrazol-4-yl)phenyl)-4,5,6,7-tetrahydrothieno[2,3-c]pyridine-2-carbonitrile] | 19.9 | 
16 | CCn1cc(-c2cc(C(F)F)ccc2C2CN(C(=O)/C=C/CN(C)C)Cc3sc(C#N)cc32)c(C(F)(F)F)n1 (centres unmarked) [Example 188, (E)-4-(4-(Difluoromethyl)-2-(1-ethyl-3-(trifluoromethyl)-1 H-pyrazol-4-yl)phenyl)-6-(4-(dimethylamino)but-2-enoyl)-4,5,6,7-tetrahydrothieno[2,3-c]pyridine-2-carbonitrile] | 18 | 
17 | CCn1cc(-c2cc(NC(C)=O)ccc2C2CN(C(=O)/C=C/CN(C)C)Cc3sc(C#N)cc32)c(C(F)(F)F)n1 (centres unmarked) [Example 197, (E)-N-(4-(2-Cyano-6-(4-(dimethylamino)but-2-enoyl)-4,5,6,7-tetrahydrothieno[2,3-c]pyridin-4-yl)-3-(1-ethyl-3-(trifluoromethyl)-1 H-pyrazol-4-yl)phenyl)acetamide] | 15.2 | 
18 | CNC(=O)C(C)n1cc(-c2ccccc2[C@@H]2CN(C(=O)/C=C/CN(C)C)Cc3sc(C#N)cc32)c(C(F)(F)F)n1 (stereo partly drawn) [Example 161, 2-(4-(2-((S)-2-Cyano-6-((E)-4-(dimethylamino)but-2-enoyl)-4,5,6,7-tetrahydrothieno[2,3-c]pyridin-4-yl)phenyl)-3-(trifluoromethyl)-1 H-pyrazol-1-yl)-N-methylpropanamide] | 15.8 | 
19 | CCn1cc(-c2ccccc2[C@@H]2CN(C(=O)/C=C/CN3CCC(c4ccccc4)C3)Cc3sc(C#N)cc32)c(C(F)(F)F)n1 (stereo partly drawn) [Example 35, (4S)-4-(2-(1-ethyl-3-(trifluoromethyl)-1 H-pyrazol-4-yl)phenyl)-6-((E)-4-(3-phenylpyrrolidin-1-yl)but-2-enoyl)-4,5,6,7-tetrahydrothieno[2,3-c]pyridine-2-carbonitrile] | > 25 | 
20 | CN(C)C/C=C/C(=O)N1Cc2sc(C#N)cc2[C@H](c2ccccc2-c2cn(CCCC(=O)O)nc2C(F)(F)F)C1 [Example 174, (S, E)-4-(4-(2-(2-Cyano-6-(4-(dimethylamino)but-2-enoyl)-4,5,6,7-tetrahydrothieno[2,3-c]pyridin-4-yl)phenyl)-3-(trifluoromethyl)-1H pyrazol-1-yl)butanoic acid] | 12.5 | 
21 | CN(C)C/C=C/C(=O)N1Cc2sc(C#N)cc2[C@H](c2ccccc2-c2cn(CCc3ccncc3)nc2C(F)(F)F)C1 [Example 177, (S,E)-6-(4-(Dimethylamino)but-2-enoyl)-4-(2-(1-(2-(pyridin-4-yl)ethyl)-3-(trifluoromethyl)-1H pyrazol-4-yl)phenyl)-4,5,6,7-tetrahydrothieno[2,3-c]pyridine-2-carbonitrile] | 6.3 | 
22 | C=CC(=O)N1Cc2sc(C#N)cc2C(c2ccc(N)cc2-c2cn(CC)nc2C(F)(F)F)C1 (centres unmarked) [Compound 228] | 2.07 | 
